Patent US20260158011A1 (Achieve Life Sciences, Inc., priority 2023, published 2026)
Read-outs that look alike come from different tables or passages of the source.

System: adult e-cigarette users
Conditions: for Saliva Cotinine Actual Value, Mean / Saliva Cotinine Actual Value, Median / Saliva Cotinine Change from Baseline, Mean / Saliva Cotinine Change from Baseline, Median: 12 Weeks arm, All Randomized Set; for Saliva Cotinine Change from Baseline, LS Means / Saliva Cotinine Change from Baseline, LS Means Difference from Placebo: repeated-measures ANOVA
From the text: A second measurement consisted of biochemically verified continuous vaping abstinence at any time during treatment, with vaping abstinence at Week 3-6 or Week 6-9 for of cytisinicline treatment vs placebo. 7-day point prevalence rates were compared for vaping abstinence (Week 2 to 12) (FIG. 62). An additional measurement included reduction in daily vaping as measured by cotinine, where cytisinicline treatment vs placebo for a reduction in nicotine vaping using weekly quantitative cotinine levels from Week 2 to Week 12. Safety was assessed by adverse effects and serious adverse effects, considering number, severity, and attribution to study drug.
Cotinine: The data were analyzed by visit and also using a repeated measures model. […] Cotinine values less than 1 were converted to 1 due to asymmetry.

## O=c1cccc2n1C[C@@H]1CNC[C@H]2C1 [cytisine, (−)-Cytisine]
Week 2
  Saliva Cotinine Actual Value, Mean: 133.598 ng/mL
  Saliva Cotinine Actual Value, Median: 70.200 ng/mL
  Saliva Cotinine Change from Baseline, Mean: -185.522 ng/mL
  Saliva Cotinine Change from Baseline, Median: -182.015 ng/mL
  Saliva Cotinine Change from Baseline, LS Means: -181.306 ng/mL
  Saliva Cotinine Change from Baseline, LS Means Difference from Placebo: -32.506 ng/mL
Week 3
  Saliva Cotinine Actual Value, Mean: 112.224 ng/mL
  Saliva Cotinine Actual Value, Median: 2.495 ng/mL
  Saliva Cotinine Change from Baseline, Mean: -210.563 ng/mL
  Saliva Cotinine Change from Baseline, Median: -210.500 ng/mL
  Saliva Cotinine Change from Baseline, LS Means: -205.329 ng/mL
  Saliva Cotinine Change from Baseline, LS Means Difference from Placebo: -72.832 ng/mL
Week 4
  Saliva Cotinine Actual Value, Mean: 112.055 ng/mL
  Saliva Cotinine Actual Value, Median: 1.710 ng/mL
  Saliva Cotinine Change from Baseline, Mean: -206.833 ng/mL
  Saliva Cotinine Change from Baseline, Median: -203.500 ng/mL
  Saliva Cotinine Change from Baseline, LS Means: -202.672 ng/mL
  Saliva Cotinine Change from Baseline, LS Means Difference from Placebo: -74.090 ng/mL
Week 5
  Saliva Cotinine Actual Value, Mean: 111.201 ng/mL
  Saliva Cotinine Actual Value, Median: 1.565 ng/mL
  Saliva Cotinine Change from Baseline, Mean: -204.721 ng/mL
  Saliva Cotinine Change from Baseline, Median: -187.000 ng/mL
  Saliva Cotinine Change from Baseline, LS Means: -201.526 ng/mL
  Saliva Cotinine Change from Baseline, LS Means Difference from Placebo: -83.364 ng/mL
Week 6
  Saliva Cotinine Actual Value, Mean: 123.705 ng/mL
  Saliva Cotinine Actual Value, Median: 1.480 ng/mL
  Saliva Cotinine Change from Baseline, Mean: -199.608 ng/mL
  Saliva Cotinine Change from Baseline, Median: -168.500 ng/mL
  Saliva Cotinine Change from Baseline, LS Means: -196.960 ng/mL
  Saliva Cotinine Change from Baseline, LS Means Difference from Placebo: -79.952 ng/mL
Week 7
  Saliva Cotinine Actual Value, Mean: 133.054 ng/mL
  Saliva Cotinine Actual Value, Median: 0 ng/mL
  Saliva Cotinine Change from Baseline, Mean: -181.605 ng/mL
  Saliva Cotinine Change from Baseline, Median: -184.000 ng/mL
  Saliva Cotinine Change from Baseline, LS Means: -179.597 ng/mL
  Saliva Cotinine Change from Baseline, LS Means Difference from Placebo: -49.309 ng/mL
Week 8
  Saliva Cotinine Actual Value, Mean: 125.966 ng/mL
  Saliva Cotinine Actual Value, Median: 0 ng/mL
  Saliva Cotinine Change from Baseline, Mean: -188.539 ng/mL
  Saliva Cotinine Change from Baseline, Median: -194.655 ng/mL
  Saliva Cotinine Change from Baseline, LS Means: -192.048 ng/mL
  Saliva Cotinine Change from Baseline, LS Means Difference from Placebo: -78.107 ng/mL
Week 9
  Saliva Cotinine Actual Value, Mean: 121.622 ng/mL
  Saliva Cotinine Actual Value, Median: 2.030 ng/mL
  Saliva Cotinine Change from Baseline, Mean: -202.849 ng/mL
  Saliva Cotinine Change from Baseline, Median: -199.000 ng/mL
  Saliva Cotinine Change from Baseline, LS Means: -195.014 ng/mL
  Saliva Cotinine Change from Baseline, LS Means Difference from Placebo: -86.006 ng/mL
Week 10
  Saliva Cotinine Actual Value, Mean: 127.718 ng/mL
  Saliva Cotinine Actual Value, Median: 4.100 ng/mL
  Saliva Cotinine Change from Baseline, Mean: -200.886 ng/mL
  Saliva Cotinine Change from Baseline, Median: -197.500 ng/mL
  Saliva Cotinine Change from Baseline, LS Means: -196.615 ng/mL
  Saliva Cotinine Change from Baseline, LS Means Difference from Placebo: -62.680 ng/mL
Week 11
  Saliva Cotinine Actual Value, Mean: 137.834 ng/mL
  Saliva Cotinine Actual Value, Median: 10.900 ng/mL
  Saliva Cotinine Change from Baseline, Mean: -187.683 ng/mL
  Saliva Cotinine Change from Baseline, Median: -177.500 ng/mL
  Saliva Cotinine Change from Baseline, LS Means: -186.878 ng/mL
  Saliva Cotinine Change from Baseline, LS Means Difference from Placebo: -63.262 ng/mL
Week 12
  Saliva Cotinine Actual Value, Mean: 157.889 ng/mL
  Saliva Cotinine Actual Value, Median: 36.550 ng/mL
  Saliva Cotinine Change from Baseline, Mean: -172.588 ng/mL
  Saliva Cotinine Change from Baseline, Median: -178.000 ng/mL
  Saliva Cotinine Change from Baseline, LS Means: -167.731 ng/mL
  Saliva Cotinine Change from Baseline, LS Means Difference from Placebo: -57.329 ng/mL
Week 16
  Saliva Cotinine Actual Value, Mean: 181.742 ng/mL
  Saliva Cotinine Actual Value, Median: 140.000 ng/mL
  Saliva Cotinine Change from Baseline, Mean: -146.358 ng/mL
  Saliva Cotinine Change from Baseline, Median: -116.000 ng/mL
  Saliva Cotinine Change from Baseline, LS Means: -145.035 ng/mL
  Saliva Cotinine Change from Baseline, LS Means Difference from Placebo: -54.792 ng/mL
